# Assays:
# Assay in all cases: radiometric filter-binding kinase assay, Kinase HotSpot
# Conditions in all cases: compound 0.5 µM; ATP 10 µM
# SGK3 (human) = SGK3 (human) (UniProt Q96BR1)
# ERBB2 (human) = ERBB2 (human) (UniProt P04626)
# CLK2 (human) = CLK2 (human) (UniProt P49760)
# GRK6 (human) = GRK6 (human) (UniProt P43250)
# NEK11 (human) = NEK11 (human) (UniProt Q8NG66)
# CSNK2A2 (human) = CSNK2A2 (human) (UniProt P19784)
# NEK1 (human) = NEK1 (human) (UniProt Q96PY6)
# CSK (human) = CSK (human) (UniProt P41240)
# PRKCH (human) = PRKCH (human) (UniProt P24723)
# DAPK3 (human) = DAPK3 (human) (UniProt O43293)
# DAPK3 (human), sequence (O43293 whole entry, looked up): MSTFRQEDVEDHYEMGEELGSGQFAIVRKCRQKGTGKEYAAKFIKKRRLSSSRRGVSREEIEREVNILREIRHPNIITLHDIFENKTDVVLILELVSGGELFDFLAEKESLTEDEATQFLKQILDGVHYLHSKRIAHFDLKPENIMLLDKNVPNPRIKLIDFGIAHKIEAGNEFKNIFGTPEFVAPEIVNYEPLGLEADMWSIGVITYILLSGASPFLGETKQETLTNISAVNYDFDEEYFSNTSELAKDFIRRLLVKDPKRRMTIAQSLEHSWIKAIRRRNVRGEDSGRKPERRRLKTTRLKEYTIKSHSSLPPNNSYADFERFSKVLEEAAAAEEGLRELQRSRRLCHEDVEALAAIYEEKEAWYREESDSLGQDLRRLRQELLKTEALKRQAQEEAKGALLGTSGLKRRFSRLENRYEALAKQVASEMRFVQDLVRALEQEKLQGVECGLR
# BRSK2 (human) = BRSK2 (human) (UniProt Q8IWQ3)
# GSK3B (human) = GSK3B (human) (UniProt P49841)
# MERTK (human) = MERTK (human) (UniProt Q12866)
# HIPK4 (human) = HIPK4 (human) (UniProt Q8NE63)
# STK24 (human) = STK24 (human) (UniProt Q9Y6E0)
# PRKCI (human) = PRKCI (human) (UniProt P41743)
# PRKCI (human), sequence (P41743 whole entry, looked up): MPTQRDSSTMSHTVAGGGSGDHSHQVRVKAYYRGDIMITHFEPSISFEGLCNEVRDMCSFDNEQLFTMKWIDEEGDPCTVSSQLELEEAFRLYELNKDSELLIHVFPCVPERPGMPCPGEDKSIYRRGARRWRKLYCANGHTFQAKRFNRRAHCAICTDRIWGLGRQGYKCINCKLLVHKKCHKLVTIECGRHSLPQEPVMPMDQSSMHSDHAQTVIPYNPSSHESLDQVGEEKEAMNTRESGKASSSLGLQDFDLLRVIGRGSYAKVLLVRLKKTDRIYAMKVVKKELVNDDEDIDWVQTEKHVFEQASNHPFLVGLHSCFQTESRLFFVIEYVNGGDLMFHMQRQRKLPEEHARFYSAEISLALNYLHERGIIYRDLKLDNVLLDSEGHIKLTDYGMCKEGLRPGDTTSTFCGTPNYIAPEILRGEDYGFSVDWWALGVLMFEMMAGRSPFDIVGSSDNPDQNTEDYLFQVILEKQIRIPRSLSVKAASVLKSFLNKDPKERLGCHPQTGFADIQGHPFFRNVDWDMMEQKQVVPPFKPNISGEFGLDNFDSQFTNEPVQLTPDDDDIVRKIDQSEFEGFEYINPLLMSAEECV
# DYRK1B (human) = DYRK1B (human) (UniProt Q9Y463)
# TEC (human) = TEC (human) (UniProt P42680)
# AURKA (human) = AURKA (human) (UniProt O14965)
# DMPK (human) = DMPK (human) (UniProt Q09013)
# NEK4 (human) = NEK4 (human) (UniProt P51957)
# NEK4 (human), sequence (P51957 whole entry, looked up): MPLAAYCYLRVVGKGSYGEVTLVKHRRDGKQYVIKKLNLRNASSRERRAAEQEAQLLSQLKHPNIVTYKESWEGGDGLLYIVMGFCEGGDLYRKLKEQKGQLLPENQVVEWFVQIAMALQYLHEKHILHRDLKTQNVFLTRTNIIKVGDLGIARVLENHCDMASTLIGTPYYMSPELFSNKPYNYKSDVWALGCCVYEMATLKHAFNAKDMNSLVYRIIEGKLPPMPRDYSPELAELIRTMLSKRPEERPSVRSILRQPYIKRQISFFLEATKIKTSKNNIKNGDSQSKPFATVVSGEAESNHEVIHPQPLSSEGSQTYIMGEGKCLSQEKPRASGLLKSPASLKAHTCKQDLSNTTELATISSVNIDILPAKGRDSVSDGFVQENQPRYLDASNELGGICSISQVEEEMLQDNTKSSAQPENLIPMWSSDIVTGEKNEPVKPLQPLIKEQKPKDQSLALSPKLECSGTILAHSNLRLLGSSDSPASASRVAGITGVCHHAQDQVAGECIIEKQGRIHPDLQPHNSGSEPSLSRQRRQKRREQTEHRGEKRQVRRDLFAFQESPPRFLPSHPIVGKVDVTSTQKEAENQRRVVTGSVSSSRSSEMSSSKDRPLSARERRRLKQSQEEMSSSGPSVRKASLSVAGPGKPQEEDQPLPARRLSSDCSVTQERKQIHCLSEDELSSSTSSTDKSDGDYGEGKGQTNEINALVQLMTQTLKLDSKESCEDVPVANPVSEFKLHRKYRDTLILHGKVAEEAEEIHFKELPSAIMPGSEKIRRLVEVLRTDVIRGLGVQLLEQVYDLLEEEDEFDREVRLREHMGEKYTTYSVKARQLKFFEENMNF
# FGR (human) = FGR (human) (UniProt P09769)
# PRKCB1 (human) = PRKCB1 (human) (UniProt P05771)
# PRKCB1 (human), sequence (P05771 whole entry, looked up): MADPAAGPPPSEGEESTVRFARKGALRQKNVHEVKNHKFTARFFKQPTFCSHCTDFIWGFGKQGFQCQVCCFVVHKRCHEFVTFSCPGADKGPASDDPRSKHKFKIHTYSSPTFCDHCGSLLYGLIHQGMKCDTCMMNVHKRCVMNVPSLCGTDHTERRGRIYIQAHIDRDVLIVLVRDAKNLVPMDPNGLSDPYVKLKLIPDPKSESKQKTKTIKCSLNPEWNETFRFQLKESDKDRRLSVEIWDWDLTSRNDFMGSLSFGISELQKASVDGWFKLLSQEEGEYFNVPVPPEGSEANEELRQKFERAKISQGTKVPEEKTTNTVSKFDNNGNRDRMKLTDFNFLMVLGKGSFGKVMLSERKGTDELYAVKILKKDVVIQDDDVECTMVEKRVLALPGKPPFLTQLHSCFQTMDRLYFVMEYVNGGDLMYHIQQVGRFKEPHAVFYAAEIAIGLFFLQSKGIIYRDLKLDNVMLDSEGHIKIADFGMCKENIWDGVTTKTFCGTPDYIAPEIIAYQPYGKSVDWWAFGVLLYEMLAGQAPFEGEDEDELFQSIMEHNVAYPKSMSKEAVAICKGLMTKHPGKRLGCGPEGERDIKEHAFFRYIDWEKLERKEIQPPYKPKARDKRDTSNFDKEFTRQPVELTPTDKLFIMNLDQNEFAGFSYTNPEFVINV
# STK4 (human) = STK4 (human) (UniProt Q13043)
# CDK6 CCND3 (human) = CDK6 CCND3 (human) (UniProt P30281+Q00534)
# ROCK1 (human) = ROCK1 (human) (UniProt Q13464)
# STK10 (human) = STK10 (human) (UniProt O94804)
# STK10 (human), sequence (O94804 whole entry, looked up): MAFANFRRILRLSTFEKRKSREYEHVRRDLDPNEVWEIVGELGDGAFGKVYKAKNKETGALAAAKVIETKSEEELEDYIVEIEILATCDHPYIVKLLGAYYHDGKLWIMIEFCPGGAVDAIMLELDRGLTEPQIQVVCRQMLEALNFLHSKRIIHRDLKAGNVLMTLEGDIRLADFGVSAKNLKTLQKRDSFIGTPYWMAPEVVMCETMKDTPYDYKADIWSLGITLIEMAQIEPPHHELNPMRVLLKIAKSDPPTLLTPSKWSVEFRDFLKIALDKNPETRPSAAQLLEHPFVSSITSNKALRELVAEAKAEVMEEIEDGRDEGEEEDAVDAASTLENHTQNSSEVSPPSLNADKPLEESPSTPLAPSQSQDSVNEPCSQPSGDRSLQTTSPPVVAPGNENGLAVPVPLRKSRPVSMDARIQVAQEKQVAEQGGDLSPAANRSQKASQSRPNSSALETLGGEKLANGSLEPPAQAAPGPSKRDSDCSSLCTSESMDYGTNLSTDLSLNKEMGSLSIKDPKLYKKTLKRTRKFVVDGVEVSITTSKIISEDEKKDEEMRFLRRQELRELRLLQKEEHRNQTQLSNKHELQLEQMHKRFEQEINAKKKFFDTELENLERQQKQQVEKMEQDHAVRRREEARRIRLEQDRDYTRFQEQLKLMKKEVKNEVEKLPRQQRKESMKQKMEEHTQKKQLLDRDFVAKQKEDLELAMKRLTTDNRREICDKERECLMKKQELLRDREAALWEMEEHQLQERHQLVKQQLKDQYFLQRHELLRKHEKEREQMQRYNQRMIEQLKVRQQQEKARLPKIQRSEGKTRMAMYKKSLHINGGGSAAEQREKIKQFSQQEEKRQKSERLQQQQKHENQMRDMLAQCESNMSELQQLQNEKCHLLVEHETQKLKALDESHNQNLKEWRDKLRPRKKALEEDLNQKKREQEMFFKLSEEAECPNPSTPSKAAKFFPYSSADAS
# PRKCD (human) = PRKCD (human) (UniProt Q05655)
# CHEK2 (human) = CHEK2 (human) (UniProt O96017)
# BMX (human) = BMX (human) (UniProt P51813)
# BMX (human), sequence (P51813 whole entry, looked up): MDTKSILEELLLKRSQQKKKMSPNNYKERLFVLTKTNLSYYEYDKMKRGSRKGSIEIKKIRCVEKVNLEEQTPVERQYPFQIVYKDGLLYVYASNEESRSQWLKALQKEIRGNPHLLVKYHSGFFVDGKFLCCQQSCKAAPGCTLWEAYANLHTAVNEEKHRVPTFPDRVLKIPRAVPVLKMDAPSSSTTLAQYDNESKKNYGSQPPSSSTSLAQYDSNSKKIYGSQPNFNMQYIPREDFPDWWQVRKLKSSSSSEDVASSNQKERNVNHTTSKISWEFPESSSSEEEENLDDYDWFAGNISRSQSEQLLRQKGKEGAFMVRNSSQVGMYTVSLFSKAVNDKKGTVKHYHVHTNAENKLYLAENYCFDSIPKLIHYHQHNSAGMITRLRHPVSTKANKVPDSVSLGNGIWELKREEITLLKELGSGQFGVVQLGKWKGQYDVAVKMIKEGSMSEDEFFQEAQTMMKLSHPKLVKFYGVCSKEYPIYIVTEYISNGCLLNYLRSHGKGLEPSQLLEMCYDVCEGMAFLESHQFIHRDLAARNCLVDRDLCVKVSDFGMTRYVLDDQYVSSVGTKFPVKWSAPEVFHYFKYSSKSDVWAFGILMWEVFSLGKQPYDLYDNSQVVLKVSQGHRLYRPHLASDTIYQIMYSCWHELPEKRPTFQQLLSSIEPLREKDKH
# EPHA5 (human) = EPHA5 (human) (UniProt P54756)
# NTRK2 (human) = NTRK2 (human) (UniProt Q16620)
# MAP4K4 (human) = MAP4K4 (human) (UniProt O95819)
# FRK (human) = FRK (human) (UniProt P42685)
# CSNK1D (human) = CSNK1D (human) (UniProt P48730)
# MAP3K10 (human) = MAP3K10 (human) (UniProt Q02779)
# FES (human) = FES (human) (UniProt P07332)
# HIPK2 (human) = HIPK2 (human) (UniProt Q9H2X6)
# FGFR3 (human) = FGFR3 (human) (UniProt P22607)
# JAK2 JH1 JH2 (human) = JAK2 JH1 JH2 (human) (UniProt O60674)
# WEE1 (human) = WEE1 (human) (UniProt P30291)
# SLK (human) = SLK (human) (UniProt Q9H2G2)
# CLK2 (human), sequence (P49760 whole entry, looked up): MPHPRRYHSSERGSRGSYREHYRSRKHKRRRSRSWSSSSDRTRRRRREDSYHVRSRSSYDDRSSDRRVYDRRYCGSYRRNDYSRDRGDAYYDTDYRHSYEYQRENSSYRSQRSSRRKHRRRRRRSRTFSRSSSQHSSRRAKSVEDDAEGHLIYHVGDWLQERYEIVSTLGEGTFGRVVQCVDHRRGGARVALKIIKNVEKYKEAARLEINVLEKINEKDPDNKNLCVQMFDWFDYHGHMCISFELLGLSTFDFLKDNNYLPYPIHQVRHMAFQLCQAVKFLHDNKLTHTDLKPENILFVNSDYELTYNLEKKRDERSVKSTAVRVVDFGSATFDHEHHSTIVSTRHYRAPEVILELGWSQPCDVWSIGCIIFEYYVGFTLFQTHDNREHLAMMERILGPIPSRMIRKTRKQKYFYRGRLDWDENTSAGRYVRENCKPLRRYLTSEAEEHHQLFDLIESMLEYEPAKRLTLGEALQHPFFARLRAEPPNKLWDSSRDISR
smiles,measurement,setting,value
COc1cc2ncnc(Nc3ccc(O)c(Br)c3)c2cc1OC,residual activity,SGK3 (human),94.5%
same,residual activity,ERBB2 (human),33.1%
same,residual activity,CLK2 (human),96.7%
same,residual activity,GRK6 (human),104%
same,residual activity,NEK11 (human),103%
same,residual activity,CSNK2A2 (human),89.2%
same,residual activity,NEK1 (human),90.5%
same,residual activity,CSK (human),91.6%
same,residual activity,PRKCH (human),86.3%
same,residual activity,DAPK3 (human),99.1%
same,residual activity,BRSK2 (human),80.1%
same,residual activity,GSK3B (human),92%
same,residual activity,MERTK (human),87.7%
same,residual activity,HIPK4 (human),107%
same,residual activity,STK24 (human),91.7%
same,residual activity,PRKCI (human),94%
same,residual activity,DYRK1B (human),91.3%
same,residual activity,TEC (human),108%
same,residual activity,AURKA (human),83.1%
same,residual activity,DMPK (human),101%
same,residual activity,NEK4 (human),93.1%
same,residual activity,FGR (human),57.8%
same,residual activity,PRKCB1 (human),96.6%
same,residual activity,STK4 (human),90%
same,residual activity,CDK6 CCND3 (human),102%
same,residual activity,ROCK1 (human),96.1%
same,residual activity,STK10 (human),14.5%
same,residual activity,PRKCD (human),97.3%
same,residual activity,CHEK2 (human),51%
same,residual activity,BMX (human),95.3%
same,residual activity,EPHA5 (human),72.3%
same,residual activity,NTRK2 (human),94.8%
same,residual activity,MAP4K4 (human),59.3%
same,residual activity,FRK (human),74.7%
same,residual activity,CSNK1D (human),89.7%
same,residual activity,MAP3K10 (human),98.2%
same,residual activity,FES (human),94.9%
same,residual activity,HIPK2 (human),102%
same,residual activity,FGFR3 (human),98.8%
same,residual activity,JAK2 JH1 JH2 (human),95%
same,residual activity,WEE1 (human),92.5%
same,residual activity,SLK (human),50.3%
O=c1cc(N2CCOCC2)oc2c(-c3ccccc3)cccc12,residual activity,SGK3 (human),109%
same,residual activity,ERBB2 (human),104%
same,residual activity,CLK2 (human),100%
same,residual activity,GRK6 (human),93%
same,residual activity,NEK11 (human),102%
same,residual activity,CSNK2A2 (human),93.9%
same,residual activity,NEK1 (human),86.7%
same,residual activity,CSK (human),88.1%
same,residual activity,PRKCH (human),99%
same,residual activity,DAPK3 (human),96.5%
same,residual activity,BRSK2 (human),96.2%
same,residual activity,GSK3B (human),96.9%
same,residual activity,MERTK (human),95.2%
same,residual activity,HIPK4 (human),102%
same,residual activity,STK24 (human),97.1%
same,residual activity,PRKCI (human),99.5%
same,residual activity,DYRK1B (human),96.8%
same,residual activity,TEC (human),107%
same,residual activity,AURKA (human),99%
same,residual activity,DMPK (human),99.4%
same,residual activity,NEK4 (human),95.1%
same,residual activity,FGR (human),97.5%
same,residual activity,PRKCB1 (human),96%
same,residual activity,STK4 (human),87.8%
same,residual activity,CDK6 CCND3 (human),101%
same,residual activity,ROCK1 (human),104%
same,residual activity,STK10 (human),97.1%
same,residual activity,PRKCD (human),96%
same,residual activity,CHEK2 (human),93.7%
same,residual activity,BMX (human),96.9%
same,residual activity,EPHA5 (human),113%
same,residual activity,NTRK2 (human),112%
same,residual activity,MAP4K4 (human),93.5%
same,residual activity,FRK (human),101%
same,residual activity,CSNK1D (human),100%
same,residual activity,MAP3K10 (human),90.1%
same,residual activity,FES (human),96.6%
same,residual activity,HIPK2 (human),122%
same,residual activity,FGFR3 (human),95.9%
same,residual activity,JAK2 JH1 JH2 (human),95.1%
same,residual activity,WEE1 (human),76.4%
same,residual activity,SLK (human),102%

# Source: the kinase profiling compilation of Christmann-Franck et al. (2016)
